Data: PubChem BioAssay (NCI)
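Values below derive from 48-hour exposures of cells grown in 96-well plates, with endpoints linearly interpolated between the two concentrations bracketing the appropriate inhibition level. The concentration for full growth arrest is given as TGI.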

Key:
Experiment in all cases: NCI tumour cell line growth inhibition, 48 h
[1] = test system: ACHN renal
[2] = test system: COLO 205 colon
[3] = test system: DMS 114 small cell lung
[4] = test system: HCC-2998 colon
[5] = test system: HCT-116 colon
[6] = test system: HL-60(TB) leukemia
[7] = test system: HOP-62 NSCLC
[8] = test system: HOP-92 NSCLC
[9] = test system: HT29 colon
[10] = test system: IGROV1 ovarian
[11] = test system: KM12 colon
[12] = test system: KM20L2 colon
[13] = test system: LXFL 529 NSCLC
[14] = test system: M14 melanoma
[15] = test system: M19-MEL melanoma
[16] = test system: MOLT-4 leukemia
[17] = test system: NCI-H23 lung
[18] = test system: NCI-H460 lung
[19] = test system: NCI-H522 lung
[20] = test system: OVCAR-3 ovarian
[21] = test system: OVCAR-4 ovarian
[22] = test system: OVCAR-5 ovarian
[23] = test system: RPMI-8226 leukemia
[24] = test system: SF-268 CNS
[25] = test system: SF-295 CNS
[26] = test system: SF-539 CNS
[27] = test system: SK-MEL-2 melanoma
[28] = test system: SK-MEL-28 melanoma
[29] = test system: SK-OV-3 ovarian
[30] = test system: SNB-75 CNS
[31] = test system: SNB-78 CNS
[32] = test system: SR leukemia
[33] = test system: U251 CNS
[34] = test system: UACC-257 melanoma
[35] = test system: UACC-62 melanoma
[36] = test system: UO-31 renal
[37] = test system: 786-0 renal
[38] = test system: A549 NSCLC
[39] = test system: CAKI-1 renal
[40] = test system: CCRF-CEM leukemia
[41] = test system: DLD-1 colon
[42] = test system: EKVX NSCLC
[43] = test system: HCT-15 colon
[44] = test system: HOP-18 NSCLC
[45] = test system: K-562 leukemia
[46] = test system: LOX IMVI melanoma
[47] = test system: MALME-3M melanoma
[48] = test system: NCI-H226 lung
[49] = test system: OVCAR-8 ovarian
[50] = test system: RXF 393 renal
[51] = test system: SK-MEL-5 melanoma
[52] = test system: SN12C renal
[53] = test system: SNB-19 CNS
[54] = test system: SW-620 colon
[55] = test system: TK-10 renal
[56] = test system: XF 498 CNS
[57] = test system: A498 renal
[58] = test system: BT-549 breast
[59] = test system: DMS 273 small cell lung
[60] = test system: DU-145 prostate
[61] = test system: HS 578T breast
[62] = test system: MCF7 breast
[63] = test system: MDA-MB-231 breast
[64] = test system: MDA-MB-435
[65] = test system: MDA-N
[66] = test system: NCI/ADR-RES ovarian
[67] = test system: PC-3 prostate
[68] = test system: T-47D breast

Measured: TGI

Cc1cnc2cc(Cl)ccc2c1NCCN(CC(C)C)CC(C)C
> 100 µM: [1] | [2] | [3] | [4] | [5] | [6] | [7] | [9] | [10] | [11] | [12] | [13] | [14] | [15] | [16] | [17] | [18] | [19] | [20] | [21] | [22] | [23] | [24] | [25] | [26] | [27] | [28] | [29] | [30] | [31] | [32] | [33] | [34] | [35] | [36]
85.3 µM: [8]

Cc1cc2c(=O)c3ccc(Cl)cc3[nH]c2c(C(=O)O)c1C
> 100 µM: [37] | [38] | [1] | [39] | [40] | [2] | [41] | [3] | [42] | [4] | [5] | [43] | [44] | [7] | [9] | [10] | [45] | [11] | [12] | [46] | [13] | [14] | [15] | [47] | [16] | [48] | [17] | [18] | [19] | [20] | [21] | [22] | [49] | [23] | [50] | [24] | [25] | [26] | [27] | [28] | [51] | [29] | [52] | [53] | [30] | [31] | [54] | [55] | [33] | [34] | [35] | [36] | [56]

NC(=S)N/N=C/c1cn(CCCl)c2ccccc12
> 100 µM: [37] | [38] | [39] | [40] | [2] | [41] | [3] | [42] | [5] | [43] | [44] | [7] | [8] | [9] | [10] | [45] | [11] | [46] | [13] | [14] | [15] | [47] | [16] | [17] | [19] | [20] | [22] | [49] | [23] | [50] | [24] | [25] | [27] | [28] | [29] | [52] | [53] | [31] | [32] | [54] | [55] | [34] | [35] | [36]
67.4 µM: [51]
53.8 µM: [6]
86 µM: [30]

Cc1ccc2[nH]c3c(C)c4cc[n+](C)cc4c(C)c3c2c1
63.4 µM: [45]
> 56.5 µM: [39]
7.63 µM: [67]
50.2 µM: [29]
49.8 µM: [41]
22.1 µM: [65]
32.2 µM: [10]
32.6 µM: [5]
2.11 µM: [33]
3.28 µM: [7]
0.917 µM: [61]
1.52 µM: [52]
28.9 µM: [46] | [14]
18.3 µM: [50]
19.2 µM: [20]
3.24 µM: [48]
8.97 µM: [49]
2.75 µM: [37]
2.73 µM: [3] | [26]
> 59.7 µM: [23]
> 82.6 µM: [43]
5.05 µM: [2]
4.82 µM: [31]
57.9 µM: [1]
77.1 µM: [22]
54.9 µM: [16]
3.9 µM: [19]
4.19 µM: [25]
> 96.3 µM: [55]
60.2 µM: [36]
6.89 µM: [11]
2.53 µM: [53]
20.2 µM: [34]
> 58.5 µM: [44]
10.3 µM: [42]
71.3 µM: [12]
13.4 µM: [21]
4.53 µM: [57]
5.01 µM: [13]
> 44.7 µM: [63]
10.1 µM: [4]
5.77 µM: [17]
70.7 µM: [32]
33.5 µM: [60]
6.83 µM: [68]
13.7 µM: [64]
> 23.8 µM: [62]
3.05 µM: [58]
40.7 µM: [18]
16.4 µM: [35]
8.48 µM: [28]
33.7 µM: [8]
8.54 µM: [51]
41.6 µM: [9]
29.8 µM: [6]
12.2 µM: [54]
1.77 µM: [24]
17.7 µM: [59]
4.71 µM: [27]
> 100 µM: [66]
4.28 µM: [38]
4.38 µM: [47]
40.3 µM: [40]
0.761 µM: [30]

CNC(=O)N(CCCC(NC(C)=O)C(=O)NCc1ccccc1)Cc1ccccc1 (stereo not drawn)
> 100 µM: [37] | [57] | [38] | [1] | [39] | [40] | [2] | [41] | [3] | [59] | [42] | [4] | [5] | [43] | [7] | [8] | [9] | [10] | [45] | [11] | [12] | [46] | [13] | [14] | [15] | [47] | [16] | [48] | [17] | [18] | [19] | [20] | [21] | [22] | [49] | [23] | [50] | [24] | [25] | [26] | [27] | [28] | [51] | [29] | [52] | [53] | [30] | [31] | [54] | [55] | [33] | [34] | [35] | [36] | [56]

Cc1ccc(C)c(N2C(=O)C(=O)C(c3nc4ccccc4s3)C(=O)C2=O)c1
> 100 µM: [37] | [57] | [38] | [1] | [39] | [40] | [2] | [41] | [3] | [59] | [42] | [4] | [5] | [43] | [6] | [7] | [8] | [9] | [10] | [45] | [11] | [12] | [46] | [13] | [14] | [15] | [47] | [16] | [48] | [17] | [18] | [19] | [20] | [21] | [22] | [49] | [23] | [50] | [24] | [25] | [26] | [27] | [28] | [51] | [29] | [52] | [53] | [30] | [31] | [54] | [55] | [33] | [34] | [35] | [36]

O=c1n(Cc2ccccc2)c2ccccc2n1CC1CS1 (stereo not drawn)
> 100 µM: [38] | [1] | [39] | [40] | [2] | [3] | [59] | [42] | [4] | [5] | [43] | [6] | [7] | [8] | [10] | [45] | [11] | [12] | [46] | [13] | [14] | [15] | [47] | [16] | [48] | [19] | [20] | [21] | [22] | [49] | [23] | [24] | [25] | [26] | [27] | [28] | [29] | [52] | [53] | [30] | [32] | [54] | [55] | [35] | [36] | [56]
